According to patent US8445512B2, “Substituted quinoline-3-carboxamides as KCNQ2/3 modulators” (Gruenenthal GmbH, priority 2010, dated 2013):

Tests used:
KCNQ2/3 channels = biological target: T1, KCNQ2/3 channels (Homo sapiens, UniProt O43525+O43526); experiment: Fluorescence assay using a voltage sensitive dye (fluorimetry); assay type: cell-based; conditions: CHO-K1 cells expressing KCNQ2/3 channels; for Emax: relative to retigabine = 100%, read-out: Fluorimetry % efficacy (retigabine = 100%)
T1 construct: expressed in transfected cells
Protocol: Method I. Fluorescence Assay Using a Voltage Sensitive Dye (Fluorimetry)
[…] CHO-K1 cells expressing KCNQ2/3 channels are cultivated adherently at 37° C., 5% CO2 and 95% humidity in cell culture bottles (e.g. 80 cm^2 TC flasks, Nunc) with DMEM-high glucose (Sigma Aldrich, D7777) including 10% FCS (PAN Biotech, e.g. 3302-P270521) or alternatively MEM Alpha Medium (1×, liquid, Invitrogen, #22571), 10% fetal calf serum (FCS) (Invitrogen, #10270-106, heat-inactivated) and the necessary selection antibiotics.
Before being sown out for the measurements, the cells are washed with 1×DPBS buffer Ca^2+/Mg^2+-free (e.g. Invitrogen, #14190-094) and detached from the bottom of the culture vessel by using Accutase (PAA Laboratories, #L11-007) (incubation with Accutase for 15 min at 37° C.). The cell number is determined using a CASY™ cell counter (TCC, Schärfe System). Depending on the optimal density for each individual cell line, 20,000-30,000 cells/well/100 μl are seeded onto 96-well Corning™ CellBIND™ assay plates (Flat Clear Bottom Black Polystyrene Microplates, #3340). Freshly seeded cells are then left to settle for one hour at room temperature, followed by incubation for 24 hours at 37° C., 5% CO2 and 95% humidity.
The voltage-sensitive fluorescent dye from the Membrane Potential Assay Kit (Red™ Bulk format part R8123 for FLIPR, MDS Analytical Technologies™) is prepared by dissolving the contents of one vessel Membrane Potential Assay Kit Red Component A in 200 ml of extracellular buffer (ES buffer, 120 mM NaCl, 1 mM KCl, 10 mM HEPES, 2 mM CaCl2, 2 mM MgCl2, 10 mM glucose; pH 7.4). After removal of the nutrient medium, the cells are washed once with 200 μl of ES buffer, then loaded for 45 min at room temperature in 100 μl of dye solution in the dark.
Fluorescence measurements are carried out in a BMG Labtech FLUOstar™, BMG Labtech NOVOstar™ or BMG Labtech POLARstar™ instrument (525 nm excitation, 560 nm emission, Bottom Read mode). After incubation with the dye, 50 μl of the test substances in the desired concentrations, or 50 μl of ES buffer for control purposes, are applied to the wells of the assay plate and incubated for 30 min at room temperature while being shielded from light. The fluorescence intensity of the dye is then measured for 5 min and the fluorescence value F1 of each well is thus determined at a given, constant time. 15 μl of a KCl solution are then added to each well (final concentration of potassium ions 92 mM). The change in fluorescence intensity is subsequently monitored until all the relevant values have been obtained (mainly 5-30 min). At a given time post KCl application, a fluorescence value F2 is determined, in this case at the time of the fluorescence peak.
For calculation, the fluorescence intensity F2 is corrected for the fluorescence intensity F1, and the activity (ΔF/F) of the target compound on the potassium channel is determined as follows:
In order to determine whether a substance has agonistic activity,
[formula] can be related to
[formula] of control wells.
[formula] is determined by adding to the well only the buffer solution instead of the test substance, determining the value F1K of the fluorescence intensity, adding the potassium ions as described above, and measuring a value F2K of the fluorescence intensity. F2K and F1K are then calculated as follows: […]
A substance has an agonistic activity on the potassium channel if
[formula] is greater than
Independently of the comparison of
[formula] it is possible to conclude that a target compound has agonistic activity if
(§1) [formula] increases dose dependently. Calculations of EC50 and IC50 values are carried out with the aid of ‘Prism v4.0’ software (GraphPad Software™) Method II. Low-Intensity Tail Flick Test (Rat)

[1] = system: withdrawal reflex of the rat tail (tail flick) in response to a radiant heat beam; experiment: Low-intensity tail flick test (rat); assay type: in vivo; conditions: po, peroral, read-out: Low intensity tail flick, rat, peroral, % MPE (dose [mg/kg])
Protocol: as §1
In the low-intensity tail flick test, the determination of the antinociceptive effect of the compounds according to the invention towards an acute noxious thermal stimulus is carried out by measuring the withdrawal reflex of the rat tail (tail flick) in response to a radiant heat beam (analgesia meter; model 2011 of the company Rhema Labortechnik, Hofheim, Germany) according to the method described by D'Annour and Smith (J. Pharm. Exp. Ther. 72, 74 79 (1941). To this end, the rats were placed in a plexiglas restrainer, and a low-intensity radiant heat beam (48° C.) was focused onto the dorsal surface of the tail root. The stimulus intensity was adjusted to result in a mean pre-drug control withdrawal latency of about 7 s, thus also allowing a supraspinal modulation of the spinally mediated acute nociceptive reflex. A cutoff time of 30 s was applied to avoid tissue damage. Male Sprague-Dawley rats (Janvier, Le Genest St. Isle, Frankreich) with weights of 200-250 g were used. 10 rats were used per group. Before administration of a compound according to the invention, the animals were pre-tested twice in the course of five minutes and the mean of these measurements was calculated as the pre-test mean. The antinociceptive effect was determined at 20, 40 and 60 min after peroral compound administration. The antinociceptive effect was calculated based on the increase in the tail withdrawal latency according to the following formula and is expressed as percentage of the maximum possible effect (MPE [%]): MPE=[(T1−T0)/(T2−T0)]*100
In this, T0 is the control latency time before and T1 the latency time after administration of the compound, T2 is the cutoff time and MPE is the maximum possible effect. Employing variant analysis (repeated measures ANOVA) allowed testing of statistically significant differences between the compounds according to the invention and the vehicle group. The significance level was set to p≦0.05. To determine the dose dependency, the particular compound according to the invention was administered in 3-5 logarithmically increasing doses, including a threshold dose and a maximum effective dose, and the ED50 values were determined with the aid of regression analysis. The ED50 calculation was performed at the time of maximum efficacy (usually 20 min after administration of the compounds).

| Structure (SMILES) | EC50 (KCNQ2/3 channels) [nM] | Emax (KCNQ2/3 channels) [%] | inhibition in vivo at 10 mg/kg [1] [%] | inhibition in vivo at 6.81 mg/kg [1] [%] |
| --- | --- | --- | --- | --- |
| CCCc1nc2cc(C(F)(F)F)ccc2c(C)c1C(=O)NCc1ccc(F)cc1 [Example 3, N-[(4-fluorophenyl)-methyl]-4-methyl-2-propyl-7-(trifluoromethyl)-quinoline-3-carboxylic acid amide] | 43 | 126 | 51 | – |
| CCc1nc2cc(C(F)(F)F)ccc2c(C)c1C(=O)NCc1cccc(F)c1 [Example 6, 2-Ethyl-N-[(3-fluorophenyl)-methyl]-4-methyl-7-(trifluoromethyl)-quinoline-3-carboxylic acid amide] | 178 | 177 | – | 51 |
| Cc1c(C(=O)NCc2ccc(F)cc2)c(C(C)C)nc2cc(C(F)(F)F)ccc12 [Example 7, N-[(4-Fluorophenyl)-methyl]-2-isopropyl-4-methyl-7-(trifluoromethyl)-quinoline-3-carboxylic acid amide] | 65 | 181 | 54 | – |
| Cc1c(C(=O)NCc2cccc(F)c2)c(C(C)C)nc2cc(C(F)(F)F)ccc12 [Example 8, N-[(3-Fluorophenyl)-methyl]-2-isopropyl-4-methyl-7-(trifluoromethyl)-quinoline-3-carboxylic acid amide] | 53 | 185 | 65 | – |
| Cc1c(C(=O)NCc2ccc(F)cc2)c(C2CC2)nc2cc(C(F)(F)F)ccc12 [Example 9, 2-Cyclopropyl-N-[(4-fluorophenyl)-methyl]-4-methyl-7-(trifluoromethyl)-quinoline-3-carboxylic acid amide] | 126 | 161 | 15 | – |
| Cc1c(C(=O)NCc2cccc(F)c2)c(C2CC2)nc2cc(C(F)(F)F)ccc12 [Example 10, 2-Cyclopropyl-N-[(3-fluorophenyl)-methyl]-4-methyl-7-(trifluoromethyl)-quinoline-3-carboxylic acid amide] | 91 | 182 | – | 43 |
| COCc1nc2cc(C(F)(F)F)ccc2c(C)c1C(=O)NCc1cccc(F)c1 [Example 15, N-[(3-fluorophenyl)-methyl]-2-(methoxymethyl)-4-methyl-7-(trifluoromethyl)-quinoline-3-carboxylic acid amide] | 635 | 117 | 9 | – |
| COCc1nc2cc(C(F)(F)F)ccc2c(C)c1C(=O)NCc1ccc(F)cc1 [Example 16, N-[(4-Fluorophenyl)-methyl]-2-(methoxymethyl)-4-methyl-7-(trifluoromethyl)-quinoline-3-carboxylic acid amide] | 393 | 96 | 21 | – |
| Cc1c(C(=O)NCc2ccc(F)cc2)c(C(C)C)nc2cc(C#N)ccc12 [Example 40, 7-Cyano-N-[(4-fluorophenyl)-methyl]-2-isopropyl-4-methyl-quinoline-3-carboxylic acid amide] | 190 | 163 | – | – |
